This series in a line: Blood-to-plasma partition ratio in human blood. It counts as in vitro ADME. As to conditions: human whole blood (K2EDTA as anticoagulant), control compounds, 37°C, 60 minutes incubation, LC/MS/MS, read-out: Blood-to-plasma partition ratio (BPR). As to the method:
In vitro measurement of blood-to-plasma partition was conducted in human blood (K2EDTA as anticoagulant) obtained from a commercial source (BioReclamation IVT, Liverpool, NY). Hematocrit (the ratio of volume of red blood cells to total blood) was measured by centrifugation of the whole blood at 3000 rpm for 10 minutes using microhematocrit capillary tubes. Control plasma was prepared from a portion of the whole blood by centrifugation at 3000g for 10 minutes. Both whole blood and control plasma samples were warmed at 37°C in a water bath for 30 minutes. Subsequently, the test compounds (1 µM in the final concentration) and controls [methazolamide (BPR ∼1) and metoprolol (BPR […])] were spiked into blood and incubated at 37°C (5% CO2) with shaking at 200 rpm for 60 minutes along with control samples. After incubation for 60 minutes, the incubated whole blood was removed from the water bath, and the plasma was separated by centrifugation at 1000g for 10 minutes. Aliquots of the control plasma were also removed. […] Test compounds and internal standard response (or peak area) ratio in whole blood and its resulting plasma were measured using liquid chromatography with tandem mass spectrometry (LC/MS/MS). Blood-to-plasma partition was calculated by ratio of mass spectrometric response of compounds in blood samples after 60 minutes of incubation to mass spectrometric response in plasma samples.

On to `CC(=O)/N=c1/sc(S(N)(=O)=O)nn1C` [methazolamide], for which the blood plasma ratio at 60 min was approximately 1.
The same measure for `COCCc1ccc(OCC(O)CNC(C)C)cc1` (centres unmarked) [metoprolol]: approximately 40.

Source of the values: publication PMC7841422, “Predicting Volume of Distribution in Humans: Performance of In Silico Methods for a Large Set of Structurally Diverse Clinical Compounds” (Drug Metabolism and Disposition, 2021).
